Data taken from PubChem BioAssay (NCI).
Where “and” joins values, the source holds several entries; their conditions need not be identical. Equal entries are not always repeated.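 Briefly, cells in 96-well plates were exposed to five compound concentrations for 48 h, and endpoints were estimated by linear interpolation. GI50 = concentration required for 50% inhibition of growth. TGI: total growth inhibition.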

Tests used:
Assay in all cases: NCI tumour cell line growth inhibition, 48 h
SNB-75 CNS = tested on: SNB-75 CNS
OVCAR-8 ovarian = tested on: OVCAR-8 ovarian
CAKI-1 renal = tested on: CAKI-1 renal
HCT-15 colon = tested on: HCT-15 colon
NCI-H226 lung = tested on: NCI-H226 lung
MALME-3M melanoma = tested on: MALME-3M melanoma
SF-539 CNS = tested on: SF-539 CNS
RXF 393 renal = tested on: RXF 393 renal
SK-MEL-5 melanoma = tested on: SK-MEL-5 melanoma
RPMI-8226 leukemia = tested on: RPMI-8226 leukemia

| SMILES | TGI (SNB-75 CNS) [µM] | TGI (OVCAR-8 ovarian) [µM] | TGI (CAKI-1 renal) [µM] | TGI (HCT-15 colon) | TGI (NCI-H226 lung) [µM] | TGI (MALME-3M melanoma) [µM] | TGI (SF-539 CNS) [µM] | TGI (RXF 393 renal) [µM] | TGI (SK-MEL-5 melanoma) [µM] | GI50 (RXF 393 renal) [µM] | GI50 (OVCAR-8 ovarian) [µM] | GI50 (CAKI-1 renal) [µM] | GI50 (HCT-15 colon) | GI50 (NCI-H226 lung) [µM] | GI50 (RPMI-8226 leukemia) [µM] | TGI (RPMI-8226 leukemia) [µM] | GI50 (SK-MEL-5 melanoma) [µM] | GI50 (SF-539 CNS) [µM] | GI50 (SNB-75 CNS) [µM] | GI50 (MALME-3M melanoma) [µM] |
| --- | --- | --- | --- | --- | --- | --- | --- | --- | --- | --- | --- | --- | --- | --- | --- | --- | --- | --- | --- | --- |
| CCc1cccc(C)c1NC(=O)C(=O)CC(=O)c1ccc(Cl)s1 | > 100 | > 100 | > 100 | > 100 µM | > 100 | > 100 | > 100 |  |  |  |  |  |  |  |  |  |  |  |  |  |
| CC1/C(=N\O)CC(c2ccccc2)N(C)C1c1ccccc1 (stereo not given) | > 100 | > 100 | > 100 | > 100 µM | > 100 | > 100 | > 100 | > 100 | > 100 |  |  |  |  |  |  |  |  |  |  |  |
| Cc1csc2[n+]1-c1ccccc1N(C(=O)Nc1ccccc1)C(C)C2 (stereo not given) |  | > 100 | > 100 | > 100 µM | > 100 |  |  | > 100 | > 100 | 50.8 | > 100 | 84.9 | > 100 µM | > 100 | 67.5 | > 100 | 42.6 |  |  |  |
| O=C(CCCN1CCC(O)(c2ccc(Cl)cc2)CC1)c1ccc(F)cc1 | 68.9 | > 100 | 23.4 | 37.5 µM | > 100 | 36.2 | 60.3 |  | 29.7 |  |  |  |  |  |  | > 100 |  |  |  |  |
| O=C1CC(c2ccccc2)=Nc2ccccc2N1 | > 100 | > 100 | > 100 | > 100 µM | > 100 | > 100 | > 100 | > 100 | > 100 |  |  |  |  |  |  |  |  |  |  |  |
| COc1ccc(-c2nc(-c3ccc(C)cc3)cn3ccnc23)cc1 |  | > 5 | > 50 | > 50 µM |  |  | 31 | 18.5 | 5.2 | 2.41 | > 5 | 4.78 | 2.56 µM |  | 2.89 | > 50 | 1.68 | 5.73 |  |  |
| CCOC(=O)/C(=C/c1ccc(C(=O)OC)cc1)N(CC)CC |  | > 100 | > 100 | > 100 µM | 79 | > 100 | 60.1 |  | > 100 |  |  |  |  |  |  | > 100 |  |  |  |  |
| CCC(C)Nc1ccc(N)cc1 (stereo not given) | 20.3 | 22.2 | > 100 | 15.6 µM | 19 | 8.08 | 17.1 | 15.8 | 9.05 | 4.62 | 4.19 | 16.7 | 3.84 µM | 4.39 |  |  | 2.86 | 5.16 | 4.25 | 2.65 |
| OC(COC(c1ccccc1)(c1ccccc1)c1ccccc1)C(O)CC1SCCS1 (stereo not given) |  | 57.7 | 66.6 | 73.9 µM | 35.3 | 26.3 | 43.8 | 32.1 | 40.1 |  |  |  |  |  |  | 34.2 |  |  |  |  |
| CCCCCCCCCCCCCCCCCCn1cc[n+](C)c1 |  |  |  | 2 µM and 2.34 µM |  |  | 2.4 | 1.54 |  | 0.451 |  |  | 0.689 µM and 0.888 µM |  | 0.0268 | 0.233 |  | 1.06 |  |  |
